Usually IC50 stands for the concentration that gives 50% inhibition. Read a high IC50 as weaker potency in that assay.

For data set [1], the system named is shedding of KIM-1, renal carcinoma cells 769-P. Nature of the data set: Shedding of KIM-1 in 769-P cell culture, soluble KIM-1 by ELISA. In kind it is cell-based, human. To be noted: 769-P cells, 28 hours; for inhibition of KIM-1 shedding: 32 μM. How it is done: BB-94 (batismatat) and GM6001 (Ilomastat), are two broad spectrum hydroxamic acid-based zinc metalloproteinase inhibitors which inhibit several matrix metalloproteinases (MMP) (20). BB-94 is also a potent inhibitor of TACE (TNF alpha converting enzyme) (18). The activity of these two inhibitors on the shedding of KIM-1 in cell culture was examined.
(§1) Stock solutions of BB-94 and GM6001 were maintained in DMS0 at a concentration of 70 mM for BB-94 and 2.5 mM for GM6001. Compounds were diluted directly into fresh medium to concentrations ranging from 0.5 μm to 32 μm. Renal carcinoma cells 769-P were grown in RPMI medium supplemented with 10% fetal bovine serum, 10 mM HEPES, and 1 mM sodium pyruvate, and in the presence of various concentrations of BB-94 and GM6001 for 28 hours. […] The amount of soluble KIM-1 released into the extracellular milieu during the 28h-period was measured by ELISA (FIG. 5).
For orientation: An ELISA detects its analyte on a solid surface through an enzyme-linked reagent.

The test system of data set [2] is Renal carcinoma cells 769-P. Briefly: Cell viability with the mitochondria dye MTT. Type of data set: cell-based, human. The settings on record: end of the 28h-culture period, 0.5 to 32 μm. How it is done:
as §1

In the case of `CNC(=O)[C@H](Cc1ccccc1)NC(=O)[C@H](CC(C)C)[C@H](CSc1cccs1)C(=O)NO` [BB-94, batismatat], in data set [1], the “inhibition of KIM-1 shedding” value is “complete inhibition” and the IC50 was about 1000 nM. In data set [2], the “cytotoxicity (cell viability, MTT)” value is given as “absence of cytotoxicity”.

With `CNC(=O)[C@H](Cc1c[nH]c2ccccc12)NC(=O)[C@@H](CC(=O)NO)CC(C)C` [GM6001, Ilomastat], the “inhibition of KIM-1 shedding” value in data set [1] is listed as “complete inhibition”. For the same compound, the IC50 in data set [1] (Homo sapiens) is about 4000 nM. Also, the “cytotoxicity (cell viability, MTT)” value in data set [2] is reported as “absence of cytotoxicity”.

For the origin of these results see patent publication US7041290B2, “Molecules and methods for inhibiting shedding of KIM-1” (Biogen Idec MA Inc., priority 2001, dated 2006).
